Data taken from ChEMBL document CHEMBL3886376, “Bicyclic pyridazine compounds as Pim inhibitors” (2015).

What was measured:
[1] = target: Serine/threonine-protein kinase pim-1 (Homo sapiens, UniProt P11309); assay: (§1) PIM Enzyme Assay: The assay for the determination of Pim activity is based on the formation of phosphorylated biotinylated-BAD peptide at the Serine 112 residue (S112) and employs HTRF (homogeneous time resolved fluorescence) technology to detect the product in a 96-well plate format. The phosphorylation of biotinylated-BAD (S112) peptide by full length recombinant Pim-1, Pim-2, or Pim-3 protein was detected with streptavidin:Allophycocyanin (APC) conjugate and a europium (Eu) labeled antibody directed against phosphorylated-BAD (S112). Excitation of Eu by a high energy laser light (337 nm) leads to a transfer of energy to the APC molecule, and results in an emission at 665 nm. The fluorescence is directly proportional to the amount of phosphorylated BAD peptide present in the reaction.Compounds were prepared in DMSO by conducting 3-fold serial dilutions to give a 10-point dosing curve having a high dose of 1 uM. A reference compound was included on each assay plate in order to validate that plate.
[2] = target: Serine/threonine-protein kinase pim-2 (Homo sapiens, UniProt Q9P1W9); assay: as §1

- IC50 [1]: 4 nM
- IC50 [2]: 27 nM
Structure (SMILES): N[C@H]1CCC[C@@H](c2ccncc2Nc2ncc3ccc(-c4c(F)cccc4F)nn23)C1 (mixture of isomers)
